Test results reported in PubChem BioAssay AID2060611 (Molecular Pharmacology Branch, DTP, NCI, 2025).
Values joined by “and” are separate entries in the source; they are usually repeats but may differ in a detail not shown here. Identical values can stand only once.

Tested on: 628569-122-R-J1-PDC complex spheroid viability
Assay: Anticancer human tumor 628569-122-R-J1-PDC patient-derived head and neck squamous carcinoma cell line growth inhibition [CLK]
Conditions: for viability, T/C: stronger effect = lower value
Summary of the method: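 Patient-derived tumor cells grown as complex spheroids with HUVEC endothelial cells and mesenchymal stem cells, treated with drug combinations. Concentrations descend in half-log steps from near clinical Cmax, or from 10 microM if Cmax unknown.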

[1] = curve of first compound, second compound 0.0316 µM
[2] = curve of first compound, second compound 0.1 µM
[3] = curve of first compound, second compound 0.316 µM
[4] = curve of first compound, second compound 1 µM
[5] = curve of first compound, second compound 3.16 µM
[6] = curve of first compound, second compound 10 µM
[7] = second compound 0.0316 µM, first compound 0.0316 µM
[8] = second compound 0.0316 µM, first compound 0.1 µM
[9] = second compound 0.0316 µM, first compound 0.316 µM
[10] = second compound 0.0316 µM, first compound 1 µM
[11] = second compound 0.0316 µM, first compound 3.16 µM
[12] = second compound 0.0316 µM, first compound 10 µM
[13] = second compound 0.1 µM, first compound 0.0316 µM
[14] = second compound 0.1 µM, first compound 0.1 µM
[15] = second compound 0.1 µM, first compound 0.316 µM
[16] = second compound 0.1 µM, first compound 1 µM
[17] = second compound 0.1 µM, first compound 3.16 µM
[18] = second compound 0.1 µM, first compound 10 µM
[19] = second compound 0.316 µM, first compound 0.0316 µM
[20] = second compound 0.316 µM, first compound 0.1 µM
[21] = second compound 0.316 µM, first compound 0.316 µM
[22] = second compound 0.316 µM, first compound 1 µM
[23] = second compound 0.316 µM, first compound 3.16 µM
[24] = second compound 0.316 µM, first compound 10 µM
[25] = second compound 1 µM, first compound 0.0316 µM
[26] = second compound 1 µM, first compound 0.1 µM
[27] = second compound 1 µM, first compound 0.316 µM
[28] = second compound 1 µM, first compound 1 µM
[29] = second compound 1 µM, first compound 3.16 µM
[30] = second compound 1 µM, first compound 10 µM
[31] = second compound 3.16 µM, first compound 0.0316 µM
[32] = second compound 3.16 µM, first compound 0.1 µM
[33] = second compound 3.16 µM, first compound 0.316 µM
[34] = second compound 3.16 µM, first compound 1 µM
[35] = second compound 3.16 µM, first compound 3.16 µM
[36] = second compound 3.16 µM, first compound 10 µM
[37] = second compound 10 µM, first compound 0.0316 µM
[38] = second compound 10 µM, first compound 0.1 µM
[39] = second compound 10 µM, first compound 0.316 µM
[40] = second compound 10 µM, first compound 1 µM
[41] = second compound 10 µM, first compound 3.16 µM
[42] = second compound 10 µM, first compound 10 µM
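Further: spheroids exposed to agents for seven days before readout.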
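Wherever viability, T/C is given: 100% = DMSO vehicle control viability.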

C#Cc1c(F)ccc2cc(O)cc(-c3ncc4c(N5CC6CCC(C5)N6)nc(OCC56CCCN5CC(F)C6)nc4c3F)c12 (stereo not drawn) + CNC(=O)c1ccc(Nc2nc(OC3CCCC3)c3c(-c4ccc5nc(C)oc5c4)c[nH]c3n2)c(OC)c1
IC50 [1]: > 10000 nM
IC50 [2]: > 10000 nM
IC50 [3]: 1350 nM
IC50 [4]: < 31.6 nM
IC50 [5]: < 31.6 nM
IC50 [6]: < 31.6 nM
viability, T/C [7]: 103%
viability, T/C [8]: 94.2%
viability, T/C [9]: 84.8%
viability, T/C [10]: 100%
viability, T/C [11]: 98.7%
viability, T/C [12]: 98.8%
viability, T/C [13]: 71.2%
viability, T/C [14]: 63.2%
viability, T/C [15]: 51.5%
viability, T/C [16]: 53.5%
viability, T/C [17]: 61.7%
viability, T/C [18]: 59.3%
viability, T/C [19]: 55.8%
viability, T/C [20]: 52.9%
viability, T/C [21]: 50.2%
viability, T/C [22]: 53.4%
viability, T/C [23]: 47.5%
viability, T/C [24]: 44.1%
viability, T/C [25]: 46%
viability, T/C [26]: 45.6%
viability, T/C [27]: 47.4%
viability, T/C [28]: 50.9%
viability, T/C [29]: 44.9%
viability, T/C [30]: 52.3%
viability, T/C [31]: 51.6%
viability, T/C [32]: 43.1%
viability, T/C [33]: 47.5%
viability, T/C [34]: 39.2%
viability, T/C [35]: 40.3%
viability, T/C [36]: 28.5%
viability, T/C [37]: 49.4%
viability, T/C [38]: 42.4%
viability, T/C [39]: 41.9%
viability, T/C [40]: 41.4%
viability, T/C [41]: 47.5%
viability, T/C [42]: 29.7%

CC(=O)O[C@H]1C(=O)[C@@]2(C)[C@H]([C@H](OC(=O)c3ccccc3)[C@]3(O)C[C@H](OC(=O)[C@H](O)[C@@H](NC(=O)c4ccccc4)c4ccccc4)C(C)=C1C3(C)C)[C@]1(OC(C)=O)CO[C@@H]1C[C@@H]2O + CNC(=O)c1ccc(Nc2nc(OC3CCCC3)c3c(-c4ccc5nc(C)oc5c4)c[nH]c3n2)c(OC)c1
IC50 [1]: < 31.6 nM
IC50 [2]: < 31.6 nM
IC50 [3]: < 31.6 nM
IC50 [4]: < 31.6 nM
IC50 [5]: < 31.6 nM
IC50 [6]: < 31.6 nM
viability, T/C [7]: 34.6%
viability, T/C [8]: 33.5%
viability, T/C [9]: 36.6%
viability, T/C [10]: 35.9%
viability, T/C [11]: 36.5%
viability, T/C [12]: 59%
viability, T/C [13]: 50.4%
viability, T/C [14]: 47.4%
viability, T/C [15]: 49.6%
viability, T/C [16]: 55.5%
viability, T/C [17]: 67.9%
viability, T/C [18]: 68.4%
viability, T/C [19]: 43.1%
viability, T/C [20]: 55.3%
viability, T/C [21]: 59.7%
viability, T/C [22]: 63.9%
viability, T/C [23]: 72.9%
viability, T/C [24]: 72.9%
viability, T/C [25]: 41.4%
viability, T/C [26]: 53%
viability, T/C [27]: 55.2%
viability, T/C [28]: 57.6%
viability, T/C [29]: 57.9%
viability, T/C [30]: 68.5%
viability, T/C [31]: 44.8%
viability, T/C [32]: 51.6%
viability, T/C [33]: 56.8%
viability, T/C [34]: 56.6%
viability, T/C [35]: 60.9%
viability, T/C [36]: 64.7%
viability, T/C [37]: 41.2%
viability, T/C [38]: 47%
viability, T/C [39]: 55.3%
viability, T/C [40]: 64.2%
viability, T/C [41]: 65%
viability, T/C [42]: 69.9%

CCc1c2c(nc3ccc(O)cc13)-c1cc3c(c(=O)n1C2)COC(=O)[C@]3(O)CC
viability, T/C (compound 0.00316 µM): 69.5% and 53%
viability, T/C (compound 0.01 µM): 50.6% and 38%
viability, T/C (compound 0.0316 µM): 50.3% and 45.5%
viability, T/C (compound 0.1 µM): 41.7% and 39%
viability, T/C (compound 0.316 µM): 35.8% and 39%
viability, T/C (compound 1 µM): 8.79% and 15.5%

C=C(F)C(=O)N1CCN(c2nc(OCC3CCCN3C)nc3c2CCN(c2cccc4cccc(Cl)c24)C3)CC1CC#N (stereo not drawn)
viability, T/C (compound 0.0316 µM): 79.5% and 98.1%
viability, T/C (compound 0.1 µM): 108% and 77.6%
viability, T/C (compound 0.316 µM): 85.4% and 79.5%
viability, T/C (compound 1 µM): 93.6% and 82.5%
viability, T/C (compound 3.16 µM): 116% and 123%
viability, T/C (compound 10 µM): 12.6% and 30.3%
IC50 (curve of compound): 5990 nM and 6930 nM

COc1cccc2c1C(=O)c1c(O)c3c(c(O)c1C2=O)CC(O)(C(=O)CO)CC3OC1CC(N)C(O)C(C)O1 (stereo not drawn)
viability, T/C (compound 0.0316 µM): 79.4% and 65.2%
viability, T/C (compound 0.1 µM): 51.3% and 43.7%
viability, T/C (compound 0.316 µM): 107% and 88.3%
viability, T/C (compound 1 µM): 31.9% and 12.3%
viability, T/C (compound 3.16 µM): 12.3% and 14.2%
viability, T/C (compound 10 µM): 4.08% and 10.9%
IC50 (curve of compound): 644 nM and 445 nM

Nc1ccn(C2OC(CO)C(O)C2(F)F)c(=O)n1 (stereo not drawn) + CN1CCN(c2cc(C(=O)Nc3cc4cc(-c5cnn(C)c5)ccc4cn3)ccn2)CC1
IC50 [1]: > 10000 nM
IC50 [2]: > 10000 nM
IC50 [3]: < 31.6 nM
IC50 [4]: < 31.6 nM
IC50 [5]: < 31.6 nM
IC50 [6]: < 31.6 nM
viability, T/C [7]: 71.5%
viability, T/C [8]: 57.1%
viability, T/C [9]: 55.4%
viability, T/C [10]: 58.4%
viability, T/C [11]: 59%
viability, T/C [12]: 62.9%
viability, T/C [13]: 58.3%
viability, T/C [14]: 48.6%
viability, T/C [15]: 52.9%
viability, T/C [16]: 56.8%
viability, T/C [17]: 51.9%
viability, T/C [18]: 65.2%
viability, T/C [19]: 28.5%
viability, T/C [20]: 31.5%
viability, T/C [21]: 23.9%
viability, T/C [22]: 35.1%
viability, T/C [23]: 36.1%
viability, T/C [24]: 29.3%
viability, T/C [25]: 5.39%
viability, T/C [26]: 3.49%
viability, T/C [27]: 4.39%
viability, T/C [28]: 4.7%
viability, T/C [29]: 3.75%
viability, T/C [30]: 3.77%
viability, T/C [31]: 8.67%
viability, T/C [32]: 5.79%
viability, T/C [33]: 7.19%
viability, T/C [34]: 5%
viability, T/C [35]: 7.97%
viability, T/C [36]: 3.35%
viability, T/C [37]: 4.52%
viability, T/C [38]: 4.25%
viability, T/C [39]: 3.92%
viability, T/C [40]: 6.65%
viability, T/C [41]: 2.05%
viability, T/C [42]: 1.36%

CCc1c2c(nc3ccc(O)cc13)-c1cc3c(c(=O)n1C2)COC(=O)[C@]3(O)CC + CNC(=O)c1ccc(Nc2nc(OC3CCCC3)c3c(-c4ccc5nc(C)oc5c4)c[nH]c3n2)c(OC)c1
IC50 [1]: 326 nM
IC50 [2]: 61.5 nM
IC50 [3]: 10.7 nM
IC50 [4]: < 3.16 nM
IC50 [5]: < 3.16 nM
IC50 [6]: < 3.16 nM
viability, T/C (second compound 0.0316 µM, first compound 0.00316 µM): 62.2%
viability, T/C (second compound 0.0316 µM, first compound 0.01 µM): 47.5%
viability, T/C [7]: 53.5%
viability, T/C [8]: 46.6%
viability, T/C [9]: 51.5%
viability, T/C [10]: 11.4%
viability, T/C (second compound 0.1 µM, first compound 0.00316 µM): 56.6%
viability, T/C (second compound 0.1 µM, first compound 0.01 µM): 51.1%
viability, T/C [13]: 55.2%
viability, T/C [14]: 43.1%
viability, T/C [15]: 42%
viability, T/C [16]: 13.9%
viability, T/C (second compound 0.316 µM, first compound 0.00316 µM): 54.2%
viability, T/C (second compound 0.316 µM, first compound 0.01 µM): 49.4%
viability, T/C [19]: 42.8%
viability, T/C [20]: 44.4%
viability, T/C [21]: 31.9%
viability, T/C [22]: 21.8%
viability, T/C (second compound 1 µM, first compound 0.00316 µM): 38.8%
viability, T/C (second compound 1 µM, first compound 0.01 µM): 42.2%
viability, T/C [25]: 40.2%
viability, T/C [26]: 34.2%
viability, T/C [27]: 26.1%
viability, T/C [28]: 11.1%
viability, T/C (second compound 3.16 µM, first compound 0.00316 µM): 39.8%
viability, T/C (second compound 3.16 µM, first compound 0.01 µM): 40%
viability, T/C [31]: 36.4%
viability, T/C [32]: 39.2%
viability, T/C [33]: 29.7%
viability, T/C [34]: 7.37%
viability, T/C (second compound 10 µM, first compound 0.00316 µM): 38.7%
viability, T/C (second compound 10 µM, first compound 0.01 µM): 41.8%
viability, T/C [37]: 37.1%
viability, T/C [38]: 33.5%
viability, T/C [39]: 24.5%
viability, T/C [40]: 6.76%
